Among the data in paper doi:10.1101/2023.11.02.565309v1 (biorxiv, 2023) are fold potentiation values, retold here.

In this assay the target is WT GluA2(Q)i (Rattus norvegicus, UniProt P19491). It counts as cell-based. Particulars: positive allosteric modulator at 100 µM.

SMILES strings stand for the structures.

Chain of WT GluA2(Q)i (P19491 22-883 isoform P19491-2): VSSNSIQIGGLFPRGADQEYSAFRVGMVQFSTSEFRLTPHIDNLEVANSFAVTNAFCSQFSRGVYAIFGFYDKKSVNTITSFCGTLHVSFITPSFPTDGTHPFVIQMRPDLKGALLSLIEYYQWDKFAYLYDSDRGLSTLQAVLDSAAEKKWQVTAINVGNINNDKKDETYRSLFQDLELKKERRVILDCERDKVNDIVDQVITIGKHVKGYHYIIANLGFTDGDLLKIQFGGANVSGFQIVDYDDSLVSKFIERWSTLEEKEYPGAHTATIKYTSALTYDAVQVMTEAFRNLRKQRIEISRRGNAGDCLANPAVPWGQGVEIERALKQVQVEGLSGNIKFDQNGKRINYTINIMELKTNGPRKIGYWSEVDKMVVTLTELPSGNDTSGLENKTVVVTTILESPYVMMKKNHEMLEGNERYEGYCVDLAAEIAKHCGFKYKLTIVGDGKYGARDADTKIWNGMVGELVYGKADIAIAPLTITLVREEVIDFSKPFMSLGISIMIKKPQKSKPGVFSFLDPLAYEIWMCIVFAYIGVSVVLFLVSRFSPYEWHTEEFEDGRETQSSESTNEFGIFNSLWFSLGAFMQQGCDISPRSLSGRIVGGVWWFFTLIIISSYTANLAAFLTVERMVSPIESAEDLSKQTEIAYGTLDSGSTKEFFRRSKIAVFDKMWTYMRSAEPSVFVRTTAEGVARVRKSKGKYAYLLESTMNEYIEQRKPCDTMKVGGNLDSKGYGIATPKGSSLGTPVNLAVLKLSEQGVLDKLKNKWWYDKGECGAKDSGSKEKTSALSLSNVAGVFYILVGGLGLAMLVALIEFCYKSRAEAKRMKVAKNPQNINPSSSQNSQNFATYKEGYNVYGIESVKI

In the case of `NS(=O)(=O)c1cc2c(cc1Cl)NC(C1CC3C=CC1C3)NS2(=O)=O` (stereo not shown) [cyclothiazide], the fold potentiation is on record as ~ 3 fold.
